Laboratory results reported in US12678448B2, “Polymeric carriers for delivery of therapeutic agents” (priority 2020, dated 2026).
Entries after “also recorded” stand apart in the source; their conditions may differ.

Experiments:
[1] = test system: PGE2; assay: inhibition of PGE2 production by 5-ASA; assay type: cell-based; settings: 5-ASA concentration 1 mM; read-out: production of PGE2 inhibited
Experimental: (§1) Prostaglandin E2 level analysis. To analyze the levels of prostaglandin E2 (PGE2) production in different cell lines, the cell culture mediums were collected after overnight incubation. To test PGE2 in the tumor tissues, the harvested tumors were homogenized, and the supernatants were obtained after centrifugation. PGE2 in the supernatants was detected using Abcam Prostaglandin E2 ELISA Kit.

[2] = test system: PGE2 in CT26 tumor tissue; assay: PGE2 level in tumor tissue, ELISA; set-up: species or system BALB/c mice; settings: mouse, in vivo
Experimental: as §1

[3] = test system: 4T1.2, CT26, MDA-MB-468 and HCT116 tumor cell lines; assay: MTT cytotoxicity of free 5-ASA, DOX and combination, 48 h; assay type: cell-based, murine, human; settings: 5-ASA 0~1 mM, all four cell lines
Experimental: In vitro cytotoxicity. […] Cells were seeded in 96-well plates at a density of 5×10^3 cells/well with 100 μL of complete culture medium (DMEM or RPMI 1640 with 10% FBS and 1% streptomycin/penicillin). […] The absorbances of each well were measured at 590 nm and the cell viability was determined via the following formula: (ODtreated−ODblank)/(ODcontrol−ODblank)×100%.

[4] = test system: esophageal squamous cell carcinoma; settings: cited from earlier work
[5] = test system: KB cells; assay: MTT cytotoxicity of DOX formulations, 30 min treatment then 48 h; assay type: cell-based, human; settings: FASA up to 200 μg/mL
Experimental: In vitro cytotoxicity. Cytotoxicity assay was performed on different cancer cell lines (KB, 4T1.2, CT26, MDA-MB-468 and HCT116). Cells were seeded in 96-well plates at a density of 5×10^3 cells/well with 100 μL of complete culture medium (DMEM or RPMI 1640 with 10% FBS and 1% streptomycin/penicillin).
The cytotoxicity of PASA/DOX and FASA/DOX at a carrier/DOX ratio of 10/1 (w/w) were compared to free DOX and Doxil at various DOX concentrations. FASA control was added to cells at concentrations equivalent to the amounts of carrier in the corresponding DOX formulations. In order to confirm folate-mediated active targeting, free folate (100 μM) was added along with the FASA/DOX micelles. Cells were incubated for 30 min in drug-containing medium and then cultured for another 48 h in fresh medium prior to MTT assay.

[6] = test system: KB cells; assay: cellular uptake, fluorescence microscopy and flow cytometry; assay type: cell-based, human
Experimental: Cellular uptake study. KB, 4T1.2, CT26, MDA-MB-468, HCT116 tumor cells and M2 macrophages were seeded to 6-well plates (3×10^5/well), respectively. After overnight incubation, the culture medium was replaced by fresh medium containing free DOX, PASA/DOX and FASA/DOX micelles with or without 100 μM free folate, respectively, at an equivalent DOX concentration of 6 μg/mL (carrier/DOX ratio: 10/1 (w/w)). After incubation for 30 min at 37° C., cells were washed with cold PBS and fixed with PBS containing 4% (w/v) formaldehyde. Nuclei were then stained by DAPI for 5 min. Cells were washed with cold PBS and observed under fluorescence microscope (BZ-X710, Japan).
Cellular uptake of different DOX formulations was also quantified by flow cytometry. KB tumor cells seeded in 6-well plates (3×10^5/well) were treated with various DOX formulations as described above at a DOX concentration of 6 μg/mL. Following incubation at 37° C. for 30 min, cells were washed with cold PBS, fixed in PBS containing 4% (w/v) formaldehyde, and resuspended in 500 μL PBS for flow cytometry analysis with CyAn ADP Analyzer (Beckman Coulter, Inc.). Fluorescence was examined at an excitation wavelength of 480 nm and an emission wavelength of 570 nm. 2×10^4 events were collected for each sample.

[7] = in vitro DOX release by dialysis; assay type: physicochemical; settings: free drug control
Experimental: In vitro drug release. The release of DOX from DOX-loaded PASA and FASA micelles at different pH was studied using a dialysis method. Briefly, 2 mL of PASA/DOX and FASA/DOX micelles containing 1 mg of DOX and 10 mg of polymer were placed in a dialysis bag (MWCO 3.5 kDa) and immersed into 40 mL of 0.1 M PBS solution containing 0.5% (w/v) Tween 80 at pH 5 and pH 7.4. The experiment was performed in an incubation shaker at 37° C. at 100 rpm. At selected time intervals, 10 μL solution in the dialysis bag and 1 mL medium outside the dialysis bag were withdrawn while same amount of fresh dialysis solution was added for replenishment. The concentration of DOX was examined by fluorescence spectrometry (excitation, 480 nm; emission, 510 to 620 nm). Free DOX was included as control.

[8] = test system: 4T1.2 tumor; set-up: species or system mice; settings: mouse, in vivo, iv
Experimental: Tissue biodistribution. […] The mice were sacrificed and perfused at 24 h post injection. Tumors and major organs including heart, liver, spleen, lung and kidney were sectioned and observed under the fluorescence microscope (BZ-X710, Japan).

[9] = toxicity evaluation (body weight, AST/ALT, histology); assay type: in vivo, mice
Experimental: In vivo therapeutic study. In vivo antitumor efficacy of DOX-loaded PASA and FASA micelles was tested in syngeneic 4T1.2 mouse breast cancer model and CT26 mouse colon cancer model, respectively. Female BALB/c mice (4-6 weeks) were s.c. inoculated with 4T1.2 or CT26 cells (5×10^5 cells per mouse). When the tumor volume reached ~50 mm^3, mice were randomly divided into eight groups (n=5), and treated via tail vein injection with PBS, DOX, 5-ASA+DOX, Doxil, blank PASA micelles, blank FASA micelles, DOX-loaded PASA micelles or DOX-loaded FASA micelles, respectively once every three days for three times (polymer: 50 mg/kg, DOX: 5 mg/kg, 5-ASA: 20 mg/kg). Tumor sizes were monitored every three days following the initiation of the treatment and calculated by the formula: (Length×Width^2)/2. Body weights were also followed as an indication of toxicity. After completion of the experiment, tumor and major organs were collected for hematoxylin and eosin (H&E) staining. Blood samples were collected for biochemical analysis of alanine transaminase (ALT) and aspartate aminotransferase (AST).
Histopathological Analysis. Tumors and major organs including heart, liver, spleen, lung and kidney were excised and fixed in PBS containing 10% formaldehyde after completion of the in vivo therapy study, followed by embedment in paraffin. The paraffin embedded samples were sectioned into slices at 4 μm using an HM 325 Rotary Microtome. The tissue slices were then subjected to H&E staining for histopathological examination under a Zeiss Axiostar plus Microscope (PA, USA).
ALT and AST assessment. Mouse serum was obtained for blood biochemical assessment. ALT and AST were measured by ALT/SGPT or […] liqui-UV assay kit following manufacturer's protocols.

[10] = test system: 4T1.2 tumor; assay: in vivo therapeutic study, syngeneic breast cancer model; set-up: species or system BALB/c mice; settings: 4T1.2 model, treatments on day 0, 3, 6, i.v.
Excerpt: In vivo therapeutic study. […] Female BALB/c mice (4-6 weeks) were s.c. inoculated with 4T1.2 or CT26 cells (5×10^5 cells per mouse). […] Tumor sizes were monitored every three days following the initiation of the treatment and calculated by the formula: (Length×Width^2)/2. Body weights were also followed as an indication of toxicity. After completion of the experiment, tumor and major organs were collected for hematoxylin and eosin (H&E) staining. Blood samples were collected for biochemical analysis of alanine transaminase (ALT) and aspartate aminotransferase (AST).

[11] = test system: endometrial cancer cells; settings: cited from earlier work

## Nc1ccc(O)c(C(=O)O)c1 [5-ASA, 5-aminosalicylic acid]
[1]
  inhibition at 1000 µM: 80%
[2]
  level of PGE2 in CT26 tumor tissue: minimal effect
[3]
  anti-proliferation effect / cytotoxicity: did not show any significant anti-proliferation effect; also recorded: minimal cytotoxicity

## Cc1ccc(-c2cc(C(F)(F)F)nn2-c2ccc(S(N)(=O)=O)cc2)cc1 [Celecoxib]
[4]
  effect on 5-FU antitumor effects: enhances 5-Fluorouracil (5-FU) antitumor effects

## COc1cccc2c1C(=O)c1c(O)c3c(c(O)c1C2=O)C[C@@](O)(C(=O)CO)C[C@@H]3O[C@H]1C[C@H](N)[C@H](O)[C@H](C)O1 [DOX, doxorubicin]
[5]
  cytotoxicity (inhibition of cell proliferation): inhibited the cell proliferation in a dose-dependent manner
[6]; 30 min, DOX 6 μg/mL
  cellular uptake: efficiently taken up
[6]; excess free folate 100 μM
  effect of free folate on cellular uptake: no effect
[7]
  diffusion across the dialysis membrane: rapidly diffused across the dialysis membrane
[8]
  DOX fluorescence signals in tumor tissues: low level and scattered DOX fluorescence signals
[9]; mouse, in vivo
  body weights: slight decrease in body weights on day 9
  liver histology: hepatocellular vacuolation was found
[9]; versus control group
  serum levels of AST / ALT: significantly higher than those in the control group
[10]
  antitumor activity (tumor growth): modest antitumor activity

## CCc1cccc2c3c([nH]c12)C(CC)(CC(=O)O)OCC3 (centres unmarked) [Etodolac]
[11]
  inhibition of cancer cells: dose dependent inhibition of endometrial cancer cells
